The results in this text go back to patent publication US9951064B2, “Azaindazole compounds as inhibitors of T790M containing EGFR mutants” (Genentech, Inc., priority 2013, dated 2018).

The target of experiment [1] is T1, EGFR T790M L858R (Homo sapiens, UniProt P00533, L858R/T790M).
T1 construct: purchased Life Technologies PV4879
As to the kind of experiment: EGFR T790M L858R biochemical assay (Caliper mobility shift). The settings on record: 5 μM ATP; apparent Ki (Morrison fit) converted by Cheng-Prusoff, Km of ATP 1.3 μM. The gist of the method:
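Reactions run 30 minutes at room temperature (22 °C), stopped with 80 mM EDTA. Phosphorylated product and substrate separated electrophoretically and quantified by Caliper mobility shift.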

For experiment [2], the target named is T2, EGFR del746-750 T790M (Homo sapiens, UniProt P00533, DEL746-750/T790M).
T2 construct: purchased Carna Biosciences 08-528
Put plainly: EGFR del746-750 T790M biochemical assay (Caliper mobility shift). The following applies: 5 μM ATP; apparent Ki (Morrison fit) converted by Cheng-Prusoff, Km of ATP 2.1 μM; read-out: EGFR(T790M/d746-750) Ki. The method in brief: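 Kinase reactions ran 30 min at room temperature (22 °C), then were stopped with 80 mM EDTA. Phosphorylated product and substrate were separated electrophoretically and quantified by Caliper mobility shift.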

Experiment [3] deals with T3, phosphor-EGFR in H1975(L585R/T790M) mutant EGFR expressing cells (Homo sapiens, UniProt P00533, L858R/T790M).
T3 construct: host or cells: NCI-H1975
As to the kind of experiment: H1975 pEGFR MSD cellular assay. The settings on record: NCI-H1975 cells, serum starved, 1 hour compound incubation, pEGFR Tyr1068 MSD; read-out: HI975 pEGFR EC50. The format is cell-based. The method in brief:
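NCI-H1975 cells, 30,000/well, serum-starved overnight, then treated 1 hour at 37° C with serially diluted compounds in serum-free medium (0.5% DMSO). Lysates captured on anti-phospho-EGFR plates overnight at 4° C, detected with SULFO-TAG anti-total EGFR by electrochemiluminescence. Inhibition vs untreated controls; EC50 from 4-parameter logistic fit.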

Experiment [4] concerns H1975 (EGFR T790M/L858R) cell proliferation. Put plainly: H1975 proliferation assay (Cell Titer-Glo). The experiment is classed as cell-based. The following applies: Homo sapiens, NCI-H1975, 72 h, NCI-H1975 cells, 72 hour incubation, read-out: H1975 antiproliferative EC50. As to the method:
H1975 Proliferation Assays
All cell culture reagents were purchased from Invitrogen/Gibco. Cells are cultured at 37° C. at 5% CO2 and split as recommended by ATCC.

A value given as a limit tells only on which side of the number the result lay.

For orientation: EC50 means the concentration at which the effect is half-maximal.

T3 sequence (P00533 25-1210 T790M/L858R): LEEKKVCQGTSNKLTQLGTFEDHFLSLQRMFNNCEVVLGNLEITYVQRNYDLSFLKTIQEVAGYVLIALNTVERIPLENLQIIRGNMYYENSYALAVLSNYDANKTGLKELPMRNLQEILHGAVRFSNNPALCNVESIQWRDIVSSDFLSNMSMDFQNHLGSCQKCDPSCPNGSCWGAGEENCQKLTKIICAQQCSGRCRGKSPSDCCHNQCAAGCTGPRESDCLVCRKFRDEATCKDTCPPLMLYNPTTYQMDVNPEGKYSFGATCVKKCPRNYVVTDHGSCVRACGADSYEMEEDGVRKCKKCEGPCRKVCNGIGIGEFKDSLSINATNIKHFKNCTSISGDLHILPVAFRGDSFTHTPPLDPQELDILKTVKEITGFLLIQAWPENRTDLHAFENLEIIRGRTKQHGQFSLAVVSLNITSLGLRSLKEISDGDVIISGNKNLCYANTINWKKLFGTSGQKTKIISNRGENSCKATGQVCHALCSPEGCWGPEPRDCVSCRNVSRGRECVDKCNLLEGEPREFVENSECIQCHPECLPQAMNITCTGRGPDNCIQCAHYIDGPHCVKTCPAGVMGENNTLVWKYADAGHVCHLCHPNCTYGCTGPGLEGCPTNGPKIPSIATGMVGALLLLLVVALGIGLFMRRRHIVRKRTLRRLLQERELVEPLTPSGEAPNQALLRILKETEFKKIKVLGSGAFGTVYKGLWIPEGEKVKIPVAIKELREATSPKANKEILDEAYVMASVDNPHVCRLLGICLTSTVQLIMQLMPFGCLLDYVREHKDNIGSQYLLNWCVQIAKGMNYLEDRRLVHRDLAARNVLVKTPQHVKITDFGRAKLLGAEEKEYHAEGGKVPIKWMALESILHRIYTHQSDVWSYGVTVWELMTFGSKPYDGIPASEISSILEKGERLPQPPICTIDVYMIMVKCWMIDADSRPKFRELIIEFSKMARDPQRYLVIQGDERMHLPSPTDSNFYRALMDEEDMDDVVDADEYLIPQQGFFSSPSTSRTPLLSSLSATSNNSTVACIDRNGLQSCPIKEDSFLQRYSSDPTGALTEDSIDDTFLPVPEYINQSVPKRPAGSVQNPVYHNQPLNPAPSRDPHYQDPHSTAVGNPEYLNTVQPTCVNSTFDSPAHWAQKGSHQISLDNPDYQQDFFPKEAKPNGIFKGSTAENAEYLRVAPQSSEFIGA
T1 sequence (P00533 25-1210 T790M/L858R): as above
T2 sequence (P00533 with tags, fused parts or gaps DEL746-750/T790M limits assumed): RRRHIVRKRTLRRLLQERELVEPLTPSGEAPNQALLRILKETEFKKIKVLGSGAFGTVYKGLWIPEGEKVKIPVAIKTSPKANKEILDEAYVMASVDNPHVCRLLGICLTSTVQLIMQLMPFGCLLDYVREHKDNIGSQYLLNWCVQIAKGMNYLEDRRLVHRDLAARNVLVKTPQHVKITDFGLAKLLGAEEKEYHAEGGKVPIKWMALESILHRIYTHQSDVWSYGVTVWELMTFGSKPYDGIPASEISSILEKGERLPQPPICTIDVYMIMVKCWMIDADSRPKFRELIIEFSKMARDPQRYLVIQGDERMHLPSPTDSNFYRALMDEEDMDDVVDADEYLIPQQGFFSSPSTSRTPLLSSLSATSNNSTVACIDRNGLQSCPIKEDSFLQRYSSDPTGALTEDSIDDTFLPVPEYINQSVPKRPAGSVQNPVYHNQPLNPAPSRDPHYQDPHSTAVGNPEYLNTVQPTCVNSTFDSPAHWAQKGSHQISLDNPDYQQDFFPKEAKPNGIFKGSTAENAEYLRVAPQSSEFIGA

Regarding `CCS(=O)(=O)n1cc(-c2nccc(Nc3cc4c(cn3)c(NC3CCOC3)nn4C(C)C)n2)cn1` (stereo not drawn) [Example 38, N6-(2-(1-(ethylsulfonyl)-1H-pyrazol-4-yl)pyrimidin-4-yl)-1-isopropyl-N3-(tetrahydrofuran-3-yl)-1H-pyrazolo[4,3-c]pyridine-3,6-diamine], the figures for the Ki in experiment [1] and in experiment [2] were 1.1 nM and 2.4 nM, respectively. The EC50 in experiment [3] came to 40.8 nM; in experiment [4] it was 272 nM.

For the compound `CC(C)n1nc(N2CCOC(CO)C2)c2cnc(Nc3ccnc(-c4cnn(S(=O)(=O)C5CC5)c4)n3)cc21` (stereo not drawn) [Example 53, (4-(6-(2-(1-(cyclopropylsulfonyl)-1H-pyrazol-4-yl)pyrimidin-4-ylamino)-1-isopropyl-1H-pyrazolo[4,3-c]pyridin-3-yl)morpholin-2-yl)methanol], the figures for the Ki in experiment [1] and in experiment [2] were 1.2 nM and 0.9 nM, respectively. Moreover, the EC50 worked out at 53.6 nM in experiment [3] and 241 nM in experiment [4].

Turning to `CC(C)n1nc(N2CCC2)c2cnc(Nc3ccnc(-c4cnn(S(=O)(=O)C5CC5)c4)n3)cc21` [Example 54, 3-(azetidin-1-yl)-N-(2-(1-(cyclopropylsulfonyl)-1H-pyrazol-4-yl)pyrimidin-4-yl)-1-isopropyl-1H-pyrazolo[4,3-c]pyridin-6-amine], the figures for the Ki in experiment [1] and in experiment [2] were 0.7 nM and 0.5 nM, respectively. For the same compound, the concentration for a half-maximal effect (EC50) was 17.9 nM in experiment [3] and 158 nM in experiment [4].

With `CC(C)n1nc(N2CCNC(=O)C2)c2cnc(Nc3ccnc(-c4cnn(S(=O)(=O)C5CC5)c4)n3)cc21` [Example 59, 4-(6-(2-(1-(cyclopropylsulfonyl)-1H-pyrazol-4-yl)pyrimidin-4-ylamino)-1-isopropyl-1H-pyrazolo[4,3-c]pyridin-3-yl)piperazin-2-one], the Ki in experiment [1] is less than 0.6 nM; in experiment [2], 0.5 nM. The EC50 in experiment [3] was found to be 92.1 nM; in experiment [4], 738 nM.

For `CC(C)n1nc(N2CC(CO)C2)c2cnc(Nc3ccnc(-c4cnn(S(=O)(=O)C5CC5)c4)n3)cc21` [Example 63, (1-(6-(2-(1-(cyclopropylsulfonyl)-1H-pyrazol-4-yl)pyrimidin-4-ylamino)-1-isopropyl-1H-pyrazolo[4,3-c]pyridin-3-yl)azetidin-3-yl)methanol], the figures for the Ki in experiment [1] and in experiment [2] were less than 0.6 nM and 0.5 nM, respectively. Further, the EC50 in experiment [3] is 18.5 nM; in experiment [4], 271 nM.

For the compound `CC[C@H](C)n1nc(N2CC3(COC3)C2)c2cnc(Nc3ccnc(OCC(C)(C)S(C)(=O)=O)n3)cc21` [Example 71, [1-((S)-sec-Butyl)-3-(2-oxa-6-azaspiro[3.3]hept-6-yl)-1H-pyrazolo[4,3-c]pyridin-6-yl]-[2-(2-methanesulfonyl-2-methylpropoxy)pyrimidin-4-yl]amine], the values for the Ki in experiment [1] and in experiment [2] were 4.7 nM and 13.2 nM, respectively. Also, the EC50 was determined as 256 nM in experiment [3] and 785 nM in experiment [4].

Take `CC(C)n1nc(N2CCOC2=O)c2cnc(Nc3ccnc(-c4cnn(S(=O)(=O)C5CC5)c4)n3)cc21` [Example 72, 3-(6-(2-(1-(Cyclopropylsulfonyl)-1H-pyrazol-4-yl)pyrimidin-4-ylamino)-1-isopropyl-1H-pyrazolo[4,3-c]pyridin-3-yl)oxazolidin-2-one]: the Ki in experiment [1] came to 0.7 nM; in experiment [2], 0.5 nM. Also, the values for the EC50 in experiment [3] and in experiment [4] were 28.1 nM and 206 nM, respectively.

`CC(C)n1nc(N2CC3CCC(C2)O3)c2cnc(Nc3ccnc(-c4cnn(S(=O)(=O)C5CC5)c4)n3)cc21` [Example 73, 3-(8-Oxa-3-azabicyclo[3.2.1]octan-3-yl)-N-(2-(1-(cyclopropylsulfonyl)-1H-pyrazol-4-yl)pyrimidin-4-yl)-1-isopropyl-1H-pyrazolo[4,3-c]pyridin-6-amine]: the Ki in experiment [1] is 3.3 nM; in experiment [2], 3.1 nM. Further, the EC50 in experiment [3] was found to be 124 nM; in experiment [4], 1210 nM.

As for `CC(C)n1nc(NC(C)(C)C)c2cnc(Nc3ccnc(-c4cnn(S(=O)(=O)C5CC5)c4)n3)cc21` [Example 74, N^3-tert-Butyl-N^6-(2-(1-(cyclopropylsulfonyl)-1H-pyrazol-4-yl)pyrimidin-4-yl)-1-isopropyl-1H-pyrazolo[4,3-c]pyridine-3,6-diamine], the Ki in experiment [1] amounted to 129 nM; in experiment [2] it was 106 nM. The EC50 in experiment [3] came to 9260 nM; in experiment [4], 4620 nM.

Regarding `CC(C)n1nc(N2CCN(C)C2=O)c2cnc(Nc3ccnc(N4CCC(O)C(F)C4)n3)cc21` (stereo not drawn) [Example 76, 1-(6-(2-(cis-3-Fluoro-4-hydroxypiperidin-1-yl)pyrimidin-4-ylamino)-1-isopropyl-1H-pyrazolo[4,3-c]pyridin-3-yl)-3-methylimidazolidin-2-one], the values for the Ki in experiment [1] and in experiment [2] were 5.1 nM and 13.8 nM, respectively. Moreover, the figures for the EC50 in experiment [3] and in experiment [4] were 752 nM and 1180 nM, respectively.

In the case of `CC(C)n1nc(N2CC(C)(O)C2)c2cnc(Nc3ccnc(-c4cnn(S(=O)(=O)C5CC5)c4)n3)cc21` [Example 82, 1-(6-(2-(1-(Cyclopropylsulfonyl)-1H-pyrazol-4-yl)pyrimidin-4-ylamino)-1-isopropyl-1H-pyrazolo[4,3-c]pyridin-3-yl)-3-methylazetidin-3-ol], the Ki in experiment [1] came out at 1.4 nM; in experiment [2], 1.2 nM. The EC50 in experiment [3] was 108 nM; in experiment [4], 289 nM.

For the compound `CC(C)n1nc(N2CCN(C)C2=O)c2cnc(Nc3ccnc(-c4cnn(S(=O)(=O)C5CC5)c4)n3)cc21` [Example 83, 1-(6-(2-(1-(Cyclopropylsulfonyl)-1H-pyrazol-4-yl)pyrimidin-4-ylamino)-1-isopropyl-1H-pyrazolo[4,3-c]pyridin-3-yl)-3-methylimidazolidin-2-one], the Ki was 1.3 nM in experiment [1] and 1.2 nM in experiment [2]. Moreover, the figures for the EC50 in experiment [3] and in experiment [4] were 21.6 nM and greater than 10000 nM, respectively.

In the case of `CC(C)n1nc(N2CC(C(C)(C)C(N)=O)C2)c2cnc(Nc3ccnc(N4CCC(C)(O)CC4)n3)cc21` [Example 84, 2-(1-(6-(2-(4-Hydroxy-4-methylpiperidin-1-yl)pyrimidin-4-ylamino)-1-isopropyl-1H-pyrazolo[4,3-c]pyridin-3-yl)azetidin-3-yl)-2-methylpropanamide], the Ki in experiment [1] amounted to 6.7 nM; in experiment [2] it was 20.5 nM. Besides, the figures for the EC50 in experiment [3] and in experiment [4] were 2140 nM and greater than 10000 nM, respectively.

Turning to `CC(C)n1nc(N2CC(O)C(F)(F)C2)c2cnc(Nc3ccnc(N4CCC(C)(O)CC4)n3)cc21` (stereo not drawn) [Example 85, 1-(4-(3-(3,3-Difluoro-4-hydroxypyrrolidin-1-yl)-1-isopropyl-1H-pyrazolo[4,3-c]pyridin-6-ylamino)pyrimidin-2-yl)-4-methylpiperidin-4-ol], the values for the Ki in experiment [1] and in experiment [2] were 5.5 nM and 15.5 nM, respectively. The EC50 in experiment [3] was found to be 308 nM; in experiment [4], 1330 nM.

Turning to `CC(C)n1nc(N2CC(N)CC2=O)c2cnc(Nc3ccnc(N4CCC(C)(O)CC4)n3)cc21` (stereo not drawn) [Example 86, 4-Amino-1-(6-(2-(4-hydroxy-4-methylpiperidin-1-yl)pyrimidin-4-ylamino)-1-isopropyl-1H-pyrazolo[4,3-c]pyridin-3-yl)pyrrolidin-2-one], the Ki in experiment [1] worked out at 13.3 nM; in experiment [2], 29.1 nM. Further, the results for the EC50 in experiment [3] and in experiment [4] were 1940 nM and greater than 10000 nM, respectively.

For `CC(n1nc(N2CC3(COC3)C2)c2cnc(Nc3ccnc(N4CCC(C)(O)CC4)n3)cc21)C(F)(F)F` (stereo not drawn) [Example 87, 4-Methyl-1-[4-[(3-[2-oxa-6-azaspiro[3.3]heptan-6-yl]-1-(1,1,1-trifluoropropan-2-yl)-1H-pyrazolo[4,3-c]pyridin-6-yl)amino]pyrimidin-2-yl]piperidin-4-ol], the results for the Ki in experiment [1] and in experiment [2] were 6.4 nM and 11.4 nM, respectively. In addition, the EC50 in experiment [3] came out at 472 nM; in experiment [4], 3290 nM.

With `CCC(C)n1nc(N2CCS(=N)(=O)CC2)c2cnc(Nc3ccnc(N4CCC(C)(O)CC4)n3)cc21` (stereo not drawn) [Example 89, 4-[1-(sec-Butyl)-6-[[2-(4-hydroxy-4-methylpiperidin-1-yl)pyrimidin-4-yl]amino]-1H-pyrazolo[4,3-c]pyridin-3-yl]-1-imino-4-thiomorpholin-1-one], the values for the Ki in experiment [1] and in experiment [2] were 26.5 nM and 46.9 nM, respectively. In addition, the EC50 was 5260 nM in experiment [3] and 9980 nM in experiment [4].

On to `CCC(C)n1nc(N2CCNC(=O)C2)c2cnc(Nc3ccnc(N4CCC(C)(O)CC4)n3)cc21` (stereo not drawn) [Example 92, 4-(1-sec-Butyl-6-(2-(4-hydroxy-4-methylpiperidin-1-yl)pyrimidin-4-ylamino)-1H-pyrazolo[4,3-c]pyridin-3-yl)piperazin-2-one], for which the Ki in experiment [1] amounted to 3.8 nM; in experiment [2], 9.5 nM. The EC50 in experiment [3] amounted to 788 nM; in experiment [4], 1760 nM.
